# Experimental data from patent publication US20240285717A1, “COMPOSITION FOR PREVENTING OR TREATING MUSCULAR DISEASE CONTAINING PONCIRI FRUCTUS EXTRACT” (KOREA INSTITUTE OF SCIENCE AND TECHNOLOGY, priority 2023, published 2024).
# Legend:
# [1] = system: C2C12 myotube cells; assay: Cell viability of C2C12 myotube cells with dexamethasone-induced myoatrophy; type: cell-based, mouse; settings: for viability of myotube cells reduced by dexamethasone treatment, by isolated compounds: each compound at 20 uM, FIG. 13
# Procedure: Cell culture and differentiation of myoblasts: C2C12 mouse (CRL1772; American type cell collection, USA)-derived myoblasts were cultured in Dulbecco's Modified Eagle's Medium (DMEM) medium supplemented with 10 (v/v) % FBS, and after reaching 90% confluence, they were transferred to DMEM medium containing 2 (v/v) % horse serum and cultured for 7 days to differentiate into myotube cells.
# After differentiating C2C12 myoblasts into myotube cells, myoatrophy was induced by treatment with 100 µM of Dexamethasone for 24 hours, and then the myoatrophy-induced myotube cells were treated with Ponciri Fructus extract (PT) at concentrations of 5, 10, and 20 ug/ml, respectively, to determine the effect of alleviating myoatrophy.
# The effect of each fraction (concentrations 5 ug/ml, 10 ug/ml, 20 ug/ml, 40 ug/ml) prepared according to Example 2 on the viability of […] in which myoatrophy was induced by dexamethasone was analyzed. The assay was performed in the same manner as in Example 1.
# The effect of the compounds isolated according to Example 3 (each at a concentration of 20 uM) on the viability of myotube cells in which myoatrophy was induced by dexamethasone was analyzed. The assay was performed in the same manner as in Example 1.
# The assay was performed in the same manner as in Example 1.
# [2] = system: C2C12 myotube cells; assay: RT-qPCR of myotube cell differentiation and exercise performance-related gene expression in dexamethasone-treated C2C12 myotube cells; type: cell-based, mouse; settings: auraptene treatment after dexamethasone
# Procedure: C2C12 mouse-derived […] treated with dexamethasone 10 µM were washed twice with PBS, and total RNA was extracted according to the user-recommended protocol of an RNA extraction kit (GeneAll RNA isolation kit, Seoul, South Korea). cDNA was synthesized from the extracted RNA and subjected to real time-quantitative polymerase chain reaction (RT-qPCR). PCR analysis was performed according to the user-recommended cycling conditions of analyzer (Applied Biosystems 7900 HT thermal cycler, Applied Biosystems), and to determine the expression level of each mRNA, fold change values were calculated relative to the control, using beta-actin as an endogeneous control, and relative expression amounts were compared. The primer sequences are as follows Myf5 forward primer: TCCAGGTATTCCCACCTGCT (sequence 1), Myf5 reverse primer: CACCTGGAGCGGATGAAGAAGAAC (sequence 2); Myf6 forward primer: ACAGATCGTCGGAAAGCAGC (sequence 3), Myf6 reverse primer: CACTCCGCAGAATCTCCACC (sequence 4); Myod forward primer: CATAGACTTGACAGGCCCCG (sequence 5), Myod reverse primer: CGGGTCCAGGTCCTCAAAAA (sequence 6); Myog forward primer: AGCTATCCGGTTCCAAAGCC (sequence 7), Myog reverse primer: GCACAGGAGACCTTGGTCAG (sequence 8); Ppard forward primer: GTATGCGCATGGGACTCACT (sequence 9), Ppard reverse primer: ACTGCCTTTACCGTGGGTTT (SEQ ID NO: 10); Ppargcla forward primer: GTTGCCTGCATGAGTGTGTG (SEQ ID NO: 11), Ppargc1a reverse primer: CACATGTCCCAAGCCATCCA (SEQ ID NO: 12). As a result, the gene expressions of Myf5, Myf6, Myod and Myog, markers of myotube cell differentiation, which were decreased by dexamethasone treatment, were increased by Ponciri Fructus extract treatment, and the gene expressions of Ppard and Pgc1a, markers of motor performance, were increased by Ponciri Fructus extract treatment, as shown in FIGS. 2 and 3.
# The effect of auraptene on promoting myotube cell differentiation and exercise performance-related gene expression in C2C12 myotube cells with dexamethasone-induced myoatrophy was analyzed. The assay was performed using the same method as in Example 2.
# [3] = system: myotube cells; assay: Diameter analysis of myotube cells with dexamethasone-induced myoatrophy; type: cell-based, mouse; settings: auraptene 5, 10, 20 uM; dexamethasone 100 uM; FIG. 15
# Procedure: The effect of auraptene (5 uM, 10 uM, 20 uM) on the diameter of myotube cells in which myoatrophy was induced by dexamethasone (100 uM) was analyzed. The results confirmed that the diameter of myotube cells decreased by dexamethasone treatment was restored by auraptene treatment (FIG. 15).
# [4] = system: C2C12 myotube cells; assay: Oxidative stress and mitochondrial function in dexamethasone-treated C2C12 myotube cells; type: cell-based, mouse; settings: 10 μM dexamethasone 24 hours, then auraptene; FIG. 18
# Procedure: C2C12 myoblasts were differentiated into myotube cells as in Example 1, and then treated with 10 μM dexamethasone for 24 hours to induce oxidative stress or mitochondrial dysfunction, and then treated with auraptene to determine its efficacy in improving function.
# [5] = system: mice with dexamethasone-induced sarcopenia; assay: Muscle force in mice with dexamethasone-induced sarcopenia; type: in vivo, C57BL/6J mice; settings: 4 weeks
# Procedure: (§1) C57BL/6J mice (male, 10 weeks old) were obtained from Doo-yeol Biotech, and after 2 weeks of acclimatization, they were divided into 6 test groups (n=10 per group) according to body weight. The test substance was prepared as a liquid suspension using 0.5% CMC, and the test substance was administered for 4 weeks. To compensate for the placebo effect of 0.5% CMC and the weight loss effect caused by the stress of administration, the vehicle control group was administered 0.5% CMC orally daily. Two weeks after treatment, the experimental group received an intraperitoneal injection of dexamethasone for 2 weeks to induce sarcopenia, while the normal control group received an intraperitoneal injection of saline. All mice were fed the same AIN76 diet (Research Diets) and treated with the test compound for an additional 2 weeks for a total of 4 weeks. The dark:light cycle was maintained at a 12 hr:12 hr interval and water was allowed ad libitum.
# The changes in muscle force in mice were determined by the same method as in Example 3 above.
# [6] = system: mice with dexamethasone-induced sarcopenia; assay: Weight by muscle types in mice with dexamethasone-induced sarcopenia; type: in vivo, C57BL/6J mice
# Procedure: as §1
# At the end of a total of 4 weeks of Ponciri Fructus extract administration in Example 3 above, the weight of each type of muscle tissue in all treatment groups was determined.
# After a total of 4 weeks of Auraptene administration, the weight of each type of muscle tissue in all treatment groups was determined in Example 8-5 above.
# [7] = auraptene 10, 50 mg/kg, 4 weeks, vs dexamethasone-treated group, FIG. 20
structure (smiles),measurement,setting,value
"CC(C)=CCC/C(C)=C/COc1ccc2ccc(=O)oc2c1 [Compound 2, Auraptene]","viability of myotube cells reduced by dexamethasone treatment, auraptene by concentration","[1]; 5 uM, 10 uM, 20 uM, all experimental groups, FIG. 14",restore
same,"viability of myotube cells reduced by dexamethasone treatment, by isolated compounds",[1],excellently restore
same,"viability of myotube cells reduced by dexamethasone treatment, by isolated compounds",[1]; listed as auraptene,best effect
same,Myf5 gene expression (myotube cell differentiation marker),[2]; FIG. 16,increased
same,Myod1 gene expression (myotube cell differentiation marker),[2]; FIG. 16,increased
same,Myog gene expression (myotube cell differentiation marker),[2]; FIG. 16,increased
same,Nrf1 gene expression (motor performance marker),[2]; FIG. 17,increased
same,Pparg1a gene expression (motor performance marker),[2]; FIG. 17,increased
same,Tomm20 gene expression (motor performance marker),[2]; FIG. 17,increased
same,UCP3 gene expression (motor performance marker),[2]; FIG. 17,increased
same,diameter of myotube cells decreased by dexamethasone treatment,[3],restored
same,glutathione (GSH) content,[4],increased
same,mitochondrial dysfunction induced by dexamethasone treatment,[4],improved
same,muscle force compared to the dexamethasone-treated group,"[5]; auraptene 10, 50 mg/kg oral once daily, Dexamethasone 20 mg/kg 2 weeks, FIG. 19",increased
same,calf muscle weight,[6]; [7],significantly increased
same,longissimus dorsi muscle weight,[6]; [7],significantly increased
same,soleus muscle weight,[6]; [7],significantly increased
same,thigh muscle weight,[6]; [7],significantly increased
"O=c1ccc2ccc(O)cc2o1 [Compound 3, Umbelliferone]","viability of myotube cells reduced by dexamethasone treatment, by isolated compounds",[1],excellently restore
"CC(C)C(=O)Cc1c(OCC2OC2(C)C)ccc2ccc(=O)oc12 (stereo not shown) [Compound 9, Isoponcimarin]","viability of myotube cells reduced by dexamethasone treatment, by isolated compounds",[1],excellently restore
"C/C(=C\COc1ccc2ccc(=O)oc2c1)C/C=C/C(C)(C)OO [Compound 12, 7-O-(7′-peroxygeranyl)coumarin]","viability of myotube cells reduced by dexamethasone treatment, by isolated compounds",[1],excellently restore
"C[C@]12C/C(=C/O)C(=O)C[C@@H]1CC[C@@H]1[C@@H]2CC[C@@]2(C)[C@H]1CC[C@]2(C)O [Oxymetholone, reference compound]",muscle force compared to the group treated with Dexamethasone alone,"[5]; oral once daily, PT 10, 50, 100 mg/kg, Oxymetholone 50 mg/kg, Dexamethasone 20 mg/kg i.p. 2 weeks, FIGS. 4 and 5",increased
same,weight of quadriceps muscle,"[6]; after 4 weeks, PT 10, 50, 100 mg/kg, Oxymetholone 50 mg/kg, vs Dexamethasone group, FIG. 6",significantly increased
same,weight of gastrocnemius muscle,"[6]; after 4 weeks, PT 10, 50, 100 mg/kg, Oxymetholone 50 mg/kg, vs Dexamethasone group, FIG. 7",significantly increased
same,weight of tibialis muscle,"[6]; after 4 weeks, PT 10, 50, 100 mg/kg, Oxymetholone 50 mg/kg, vs Dexamethasone group, FIG. 8",significantly increased
